# Results as given in the supplement of paper PMC10307832.
# Key:
# Test in all cases: relative viability (nuclei count vs DMSO), 5 days (fraction); higher = more cells survive
# NCI-H838 = test system: NCI-H838
# Procedure, shortened: (§1)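 One day after seeding in 1536-well plates, lung cancer cell lines were dosed by pin tool. Dosing was either single-drug or a fixed anchor-drug dose plus five library-drug doses (not always all listed) in √10 steps. After 5 days, nuclei were stained in one fix-and-stain step and counted on 4× images, and relative viability is the nuclei count of treated wells over that of vehicle wells, given as the median of duplicate plates.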
# UMC-11 = test system: UMC-11
# Procedure, shortened: as §1
# H3255 = test system: H3255
# Procedure, shortened: as §1
# LC-2-ad = test system: LC-2-ad
# Procedure, shortened: as §1
# NCI-H2087 = test system: NCI-H2087
# Procedure, shortened: as §1
# ChaGo-K-1 = test system: ChaGo-K-1
# Procedure, shortened: as §1
# HCC-15 = test system: HCC-15
# Procedure, shortened: as §1
# LCLC-97TM1 = test system: LCLC-97TM1
# Procedure, shortened: as §1
# LXF-289 = test system: LXF-289
# Procedure, shortened: as §1
# NCI-H1666 = test system: NCI-H1666
# Procedure, shortened: as §1
# BEN = test system: BEN
# Procedure, shortened: as §1
# HCC-78 = test system: HCC-78
# Procedure, shortened: as §1
# NCI-H1651 = test system: NCI-H1651
# Procedure, shortened: as §1
# LU99A = test system: LU99A
# Procedure, shortened: as §1
# NCI-H661 = test system: NCI-H661
# Procedure, shortened: as §1
# NCI-H322M = test system: NCI-H322M
# Procedure, shortened: as §1
# PC-3 [JPC-3] = test system: PC-3 [JPC-3]
# Procedure, shortened: as §1
# NCI-H596 = test system: NCI-H596
# Procedure, shortened: as §1
# NCI-H650 = test system: NCI-H650
# Procedure, shortened: as §1
structure (smiles),measurement,setting,value
COc1cc(N2CCC(C(N)=O)CC2)ccc1Nc1nc(N)c(Cl)c(Nc2ccccc2S(=O)(=O)C(C)C)n1 [HG-5-88-01] + CC(C)C[C@H](NC(=O)[C@H](Cc1ccccc1)NC(=O)c1cnccn1)B(O)O [Bortezomib] (partner 0.002 µM),relative viability,NCI-H838; first compound 0.04 µM,0.818
same,relative viability,NCI-H838; first compound 0.1265 µM,0.645
same,relative viability,NCI-H838; first compound 0.4 µM,0.759
same,relative viability,NCI-H838; first compound 1.265 µM,0.702
same,relative viability,NCI-H838; first compound 4 µM,0.333
same,relative viability,UMC-11; first compound 0.04 µM,0.769
same,relative viability,UMC-11; first compound 0.1265 µM,0.82
same,relative viability,UMC-11; first compound 0.4 µM,0.642
same,relative viability,UMC-11; first compound 1.265 µM,0.837
same,relative viability,UMC-11; first compound 4 µM,0.494
same,relative viability,H3255; first compound 0.04 µM,0.748
same,relative viability,H3255; first compound 0.1265 µM,0.745
same,relative viability,H3255; first compound 0.4 µM,0.75
same,relative viability,H3255; first compound 4 µM,0.388
same,relative viability,LC-2-ad; first compound 0.04 µM,1.06
same,relative viability,LC-2-ad; first compound 0.1265 µM,1.04
same,relative viability,LC-2-ad; first compound 0.4 µM,0.945
same,relative viability,LC-2-ad; first compound 1.265 µM,0.973
same,relative viability,LC-2-ad; first compound 4 µM,0.819
same,relative viability,NCI-H2087; first compound 0.04 µM,0.818
same,relative viability,NCI-H2087; first compound 0.1265 µM,0.692
same,relative viability,NCI-H2087; first compound 0.4 µM,0.713
same,relative viability,NCI-H2087; first compound 1.265 µM,1.01
same,relative viability,NCI-H2087; first compound 4 µM,0.934
same,relative viability,ChaGo-K-1; first compound 0.04 µM,1.11
same,relative viability,ChaGo-K-1; first compound 0.1265 µM,0.983
same,relative viability,ChaGo-K-1; first compound 0.4 µM,0.976
same,relative viability,ChaGo-K-1; first compound 1.265 µM,1.02
same,relative viability,ChaGo-K-1; first compound 4 µM,0.785
same,relative viability,HCC-15; first compound 0.04 µM,1
same,relative viability,HCC-15; first compound 0.1265 µM,1.09
same,relative viability,HCC-15; first compound 0.4 µM,0.966
same,relative viability,HCC-15; first compound 1.265 µM,1.02
same,relative viability,HCC-15; first compound 4 µM,0.746
same,relative viability,LCLC-97TM1; first compound 0.04 µM,1.05
same,relative viability,LCLC-97TM1; first compound 0.1265 µM,0.313
same,relative viability,LCLC-97TM1; first compound 0.4 µM,0.308
same,relative viability,LCLC-97TM1; first compound 1.265 µM,0.546
same,relative viability,LCLC-97TM1; first compound 4 µM,0.213
same,relative viability,LXF-289; first compound 0.04 µM,1.04
same,relative viability,LXF-289; first compound 0.1265 µM,0.994
same,relative viability,LXF-289; first compound 0.4 µM,0.909
same,relative viability,LXF-289; first compound 1.265 µM,1.05
same,relative viability,LXF-289; first compound 4 µM,0.981
same,relative viability,NCI-H1666; first compound 0.04 µM,0.944
same,relative viability,NCI-H1666; first compound 0.1265 µM,0.897
same,relative viability,NCI-H1666; first compound 0.4 µM,0.597
same,relative viability,NCI-H1666; first compound 1.265 µM,0.58
same,relative viability,NCI-H1666; first compound 4 µM,0.452
same,relative viability,BEN; first compound 0.04 µM,0.652
same,relative viability,BEN; first compound 0.1265 µM,0.752
same,relative viability,BEN; first compound 0.4 µM,0.714
same,relative viability,BEN; first compound 1.265 µM,0.841
same,relative viability,BEN; first compound 4 µM,0.791
same,relative viability,HCC-78; first compound 0.04 µM,0.467
same,relative viability,HCC-78; first compound 0.1265 µM,0.369
same,relative viability,HCC-78; first compound 0.4 µM,0.393
same,relative viability,HCC-78; first compound 1.265 µM,0.218
same,relative viability,HCC-78; first compound 4 µM,0.211
same,relative viability,NCI-H1651; first compound 0.04 µM,0.844
same,relative viability,NCI-H1651; first compound 0.1265 µM,0.935
same,relative viability,NCI-H1651; first compound 0.4 µM,0.941
same,relative viability,NCI-H1651; first compound 1.265 µM,0.976
same,relative viability,NCI-H1651; first compound 4 µM,1.03
same,relative viability,LU99A; first compound 0.04 µM,1.09
same,relative viability,LU99A; first compound 0.1265 µM,1.15
same,relative viability,LU99A; first compound 0.4 µM,1.03
same,relative viability,LU99A; first compound 1.265 µM,1.21
same,relative viability,LU99A; first compound 4 µM,1.07
same,relative viability,NCI-H661; first compound 0.04 µM,0.838
same,relative viability,NCI-H661; first compound 0.1265 µM,0.878
same,relative viability,NCI-H661; first compound 0.4 µM,0.726
same,relative viability,NCI-H661; first compound 4 µM,0.894
same,relative viability,NCI-H322M; first compound 0.04 µM,1.22
same,relative viability,NCI-H322M; first compound 0.1265 µM,1.04
same,relative viability,NCI-H322M; first compound 0.4 µM,1.38
same,relative viability,NCI-H322M; first compound 1.265 µM,1.23
same,relative viability,NCI-H322M; first compound 4 µM,1.08
same,relative viability,PC-3 [JPC-3]; first compound 0.04 µM,0.982
same,relative viability,PC-3 [JPC-3]; first compound 0.1265 µM,0.928
same,relative viability,PC-3 [JPC-3]; first compound 0.4 µM,0.819
same,relative viability,PC-3 [JPC-3]; first compound 1.265 µM,0.849
same,relative viability,PC-3 [JPC-3]; first compound 4 µM,0.533
same,relative viability,NCI-H596; first compound 0.04 µM,1.25
same,relative viability,NCI-H596; first compound 0.1265 µM,0.948
same,relative viability,NCI-H596; first compound 0.4 µM,1
same,relative viability,NCI-H596; first compound 1.265 µM,0.964
same,relative viability,NCI-H596; first compound 4 µM,1.02
same,relative viability,NCI-H650; first compound 0.04 µM,0.844
same,relative viability,NCI-H650; first compound 0.1265 µM,0.767
same,relative viability,NCI-H650; first compound 0.4 µM,0.711
same,relative viability,NCI-H650; first compound 1.265 µM,0.815
same,relative viability,NCI-H650; first compound 4 µM,0.381
